Test [1] has as its target T1, HSC82 (Saccharomyces cerevisiae, UniProt P15108, A41S).
T1 construct: N-terminal domain, C-terminal hexahistidine tag
In words: fluorescence polarization competition with GA-FITC on purified protein. It is filed as binding. A general note: Polarisation of emitted light reports the rotation of a fluorescent probe.

Test [2] concerns the target T2, HSC82 (Saccharomyces cerevisiae, UniProt P15108).
T2 construct: N-terminal domain, C-terminal hexahistidine tag
The test is described as above. It is filed as binding.

The results in this text go back to paper PMC13589290, “Plasmodium falciparum HSP90 inhibitors show divergent resistance despite a shared ATP-binding site” (Cell reports, 2026).

Take `CCNC(=O)c1noc(-c2cc(C(C)C)c(O)cc2O)c1-c1ccc(CN2CCOCC2)cc1` [AUY-922]: the “fluorescence polarization competition with GA-FITC on purified protein” value in test [1] is on record as “A41S reduced AUY-922 binding affinity in yeast HSC82, as evidenced by a rightward shift in the competition curve”; in test [2] it was “A41S reduced AUY-922 binding affinity in yeast HSC82, as evidenced by a rightward shift in the competition curve”.

On to `COC1=C2C[C@@H](C)C[C@H](OC)[C@H](O)[C@@H](C)/C=C(\C)[C@H](OC(N)=O)[C@@H](OC)/C=C\C=C(/C)C(=O)NC(=CC1=O)C2=O` [Geldanamycin], for which the “fluorescence polarization competition with GA-FITC on purified protein” value in test [1] and in test [2] was “GA binding was unaffected by the A41S substitution in yeast HSC82” each time.
